The text below walks through data of patent US9145392B2, “Imidazole amines as modulators of kinase activity” (Merck Patent GmbH, priority 2011, dated 2015).

Test [1] addresses P70S6K (T412E mutant) (Homo sapiens (Human), UniProt P23443, T412E). Description: P70S6K enzyme assay. The format is biochemical. The following applies: read-out: IC50 p70S6K. The method, boiled down: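 Phosphorylated product and substrate peptide separated by microfluidic capillary electrophoresis (Caliper LabChip 3000), product peaks resolving before substrate.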
The target in test [2] is His-AKT (Full Length) (Homo sapiens (Human), UniProt P31749). Description: AKT enzyme assay. The following applies: read-out: IC50 AKT. The format is biochemical.

A word on the IC50: it is the concentration that gives 50% inhibition.

Chain of His-AKT (Full Length) (P31749 whole entry): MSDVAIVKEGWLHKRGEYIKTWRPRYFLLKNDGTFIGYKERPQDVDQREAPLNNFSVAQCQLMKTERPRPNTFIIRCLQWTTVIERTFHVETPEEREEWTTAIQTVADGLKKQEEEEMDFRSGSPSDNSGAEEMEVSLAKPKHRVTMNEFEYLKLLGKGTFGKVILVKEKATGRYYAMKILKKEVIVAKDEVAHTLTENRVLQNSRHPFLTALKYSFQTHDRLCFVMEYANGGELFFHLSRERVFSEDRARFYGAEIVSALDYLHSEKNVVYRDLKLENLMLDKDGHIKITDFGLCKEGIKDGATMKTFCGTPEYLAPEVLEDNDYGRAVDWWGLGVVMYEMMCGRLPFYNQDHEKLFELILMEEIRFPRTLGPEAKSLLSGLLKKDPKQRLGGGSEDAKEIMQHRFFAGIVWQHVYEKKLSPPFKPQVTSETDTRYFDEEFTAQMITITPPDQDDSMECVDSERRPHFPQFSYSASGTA
Chain of P70S6K (T412E mutant) (P23443 whole entry T412E): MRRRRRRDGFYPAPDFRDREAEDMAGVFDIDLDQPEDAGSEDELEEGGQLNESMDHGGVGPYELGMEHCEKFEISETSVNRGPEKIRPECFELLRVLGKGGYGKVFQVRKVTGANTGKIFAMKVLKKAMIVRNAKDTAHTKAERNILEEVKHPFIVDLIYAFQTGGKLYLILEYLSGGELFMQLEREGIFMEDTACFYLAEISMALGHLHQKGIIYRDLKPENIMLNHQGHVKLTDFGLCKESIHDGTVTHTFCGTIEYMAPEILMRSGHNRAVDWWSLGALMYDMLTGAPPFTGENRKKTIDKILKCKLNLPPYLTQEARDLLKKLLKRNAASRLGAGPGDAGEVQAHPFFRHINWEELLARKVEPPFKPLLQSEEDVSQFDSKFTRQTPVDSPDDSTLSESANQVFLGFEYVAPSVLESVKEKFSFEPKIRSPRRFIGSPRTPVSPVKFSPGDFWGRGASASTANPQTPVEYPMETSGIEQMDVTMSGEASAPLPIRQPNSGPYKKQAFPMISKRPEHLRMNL

For `CCc1c(N)ncnc1N1CCC(c2nc(-c3ccnc(C(F)(F)F)c3)cn2CCN2CCC2)CC1` [Compound 105, 6-(4-(1-(2-(azetidin-1-yl)ethyl)-4-(2-(trifluoromethyl)pyridin-4-yl)-1H-imidazol-2-yl)piperidin-1-yl)-5-ethylpyrimidin-4-amine], the IC50 in test [1] is 2.7 nM; in test [2], 13 nM.

Regarding `C=C(C)c1c(N)ncnc1N1CCC(c2nc(-c3ccc(F)c(C(F)(F)F)c3)cn2CCN(C)C)CC1` [Compound 72, 6-{4-[1-(2-Dimethylamino-ethyl)-4-(4-fluoro-3-trifluoromethyl-phenyl)-1H-imidazol-2-yl]-piperidin-1-yl}-5-isopropenyl-pyrimidin-4-ylamine], the values for the IC50 in test [1] and in test [2] were 5 nM and 15 nM, respectively.

As for `NC(=O)c1c(N)ncnc1N1CCC(c2nc(-c3ccc(F)c(C(F)(F)F)c3)cn2CCN2CCCCC2)CC1` [Compound 337], the IC50 in test [1] was determined as 3.5 nM; in test [2], 11 nM.

Turning to `NC(=O)c1c(N)ncnc1N1CCC(c2nc(-c3ccc(F)cc3)cn2CCN2CCCC2)CC1` [Compound 333], the IC50 in test [1] worked out at 21 nM; in test [2] it was 380 nM.

For `Cc1cc(-c2cn(CCN3CCCC3)c(C3CCN(c4ncnc(N)c4OC(C)C)CC3)n2)ccc1F` [Compound 299], the half-inhibitory concentration (IC50) in test [1] was 10 nM; in test [2], 8.9 nM.

On to `C=Cc1c(N)ncnc1N1CCC(c2nc(-c3ccc(F)c(C(F)(F)F)c3)cn2CCN2CCC2)CC1` [Compound 220], for which the 50% inhibitory concentration (IC50) turned out to be 2.6 nM in test [1] and 4.2 nM in test [2].

With `Nc1ncnc(N2CCC(c3nc(-c4ccc(F)c(C(F)(F)F)c4)c[nH]3)CC2)c1Br` [Compound 43, 5-Bromo-6-{4-[4-(4-fluoro-3-trifluoromethyl-phenyl)-1H-imidazol-2-yl]-piperidin-1-yl}-pyrimidin-4-ylamine], the values for the half-inhibitory concentration (IC50) in test [1] and in test [2] were 1.7 nM and 600 nM, respectively.

Regarding `Nc1ncnc(N2CCC(c3nc(-c4ccc(F)c(C(F)(F)F)c4)cn3CCN3CCC3)CC2)c1C=O` [Compound 285], the half-inhibitory concentration (IC50) in test [1] came to 1 nM; in test [2], 1.4 nM.

Take `Nc1ncnc(N2CCC(c3nc(-c4cccc(Cl)c4)cn3CCN3CCCC3)CC2)c1C1CCC1` [Compound 264]: the results for the concentration for half-maximal inhibition (IC50) in test [1] and in test [2] were 4.1 nM and 6.2 nM, respectively.

For `CCc1c(N)ncnc1N1CCC(c2nc(-c3cccc(F)c3)cn2CCN2CCC2)CC1` [Compound 278], the IC50 was 4.6 nM in test [1] and 79.5 nM in test [2].

Consider `CC(C)c1cc(-c2cn(CCN3CCC3)c(C3CCN(c4ncnc(N)c4Br)CC3)n2)ccn1` [Compound 181, 6-(4-(1-(2-(azetidin-1-yl)ethyl)-4-(2-isopropylpyridin-4-yl)-1H-imidazol-2-yl)piperidin-1-yl)-5-bromopyrimidin-4-amine], for which the concentration for half-maximal inhibition (IC50) in test [1] came out at 0.11 nM; in test [2] it was 0.15 nM.

With `Cc1cc(-c2cn(CCNCC3CC3)c(C3CCN(c4ncnc(N)c4C(N)=O)CC3)n2)ccc1F` [Compound 383, 4-Amino-6-{4-[1-[2-(cyclopropylmethyl-amino)-ethyl]-4-(4-fluoro-3-methyl-phenyl)-1H-imidazol-2-yl]-piperidin-1-yl}-pyrimidine-5-carboxylic acid amide], the results for the 50% inhibitory concentration (IC50) in test [1] and in test [2] were 3.3 nM and 8.4 nM, respectively.

For `Nc1cc(N2CCC(c3nc(-c4ccc(F)c(F)c4)cn3CCN3CCCC3)CC2)ncn1` [Compound 243], the values for the IC50 in test [1] and in test [2] were 18 nM and 63 nM, respectively.

As for `CCc1c(N)ncnc1N1CCC(c2nc(-c3ccc(F)c(C)c3)cn2CC2CNC2)CC1` [Compound 188, 6-(4-(1-(azetidin-3-ylmethyl)-4-(4-fluoro-3-methylphenyl)-1H-imidazol-2-yl)piperidin-1-yl)-5-ethylpyrimidin-4-amine], the figures for the 50% inhibitory concentration (IC50) in test [1] and in test [2] were 2.1 nM and 2.3 nM, respectively.

For `CCc1c(N)ncnc1N1CCC(c2nc(-c3cncc(Cl)c3)cn2CCN2CCC2)CC1` [Compound 101, 6-(4-(1-(2-(azetidin-1-yl)ethyl)-4-(5-chloropyridin-3-yl)-1H-imidazol-2-yl)piperidin-1-yl)-5-ethylpyrimidin-4-amine], the IC50 in test [1] amounted to 7.6 nM; in test [2] it was 31 nM.
